Results from US10806794B2, “Protease inhibitors having enhanced features” (priority 2008, dated 2020).
Like-named read-outs stand apart in the source and are kept apart here.

Legend:
[1] = Metabolic stability in human liver microsomes; settings: human liver microsomes, 3 μM
Experimental: The human liver microsome-mediated biotransformation of PEG-PI compounds was determined by monitoring the loss of the substrate as a function of time. […] Test compounds (3 μM final concentration) were preincubated with pooled (male and female) human liver microsomes (0.5 mg/mL final protein concentration) in buffer (0.1M phosphate buffer, pH 7.4) at 37° C. Reactions were initiated by the addition of NADPH (1 mM final concentration), and allowed to continue for 0, 5, 15, 30, and 45 minutes. […] Sample supernatants are analyzed by liquid chromatography-tandem mass spectrometry.

CYP3A4 [2] = target: T1, CYP3A4 (Homo sapiens (Human), UniProt P08684); assay: Metabolic stability in CYP3A4-expressing Bactosomes; assay type: in vitro ADME; settings: 5 μM
T1 sequence (P08684 whole entry, canonical isoform): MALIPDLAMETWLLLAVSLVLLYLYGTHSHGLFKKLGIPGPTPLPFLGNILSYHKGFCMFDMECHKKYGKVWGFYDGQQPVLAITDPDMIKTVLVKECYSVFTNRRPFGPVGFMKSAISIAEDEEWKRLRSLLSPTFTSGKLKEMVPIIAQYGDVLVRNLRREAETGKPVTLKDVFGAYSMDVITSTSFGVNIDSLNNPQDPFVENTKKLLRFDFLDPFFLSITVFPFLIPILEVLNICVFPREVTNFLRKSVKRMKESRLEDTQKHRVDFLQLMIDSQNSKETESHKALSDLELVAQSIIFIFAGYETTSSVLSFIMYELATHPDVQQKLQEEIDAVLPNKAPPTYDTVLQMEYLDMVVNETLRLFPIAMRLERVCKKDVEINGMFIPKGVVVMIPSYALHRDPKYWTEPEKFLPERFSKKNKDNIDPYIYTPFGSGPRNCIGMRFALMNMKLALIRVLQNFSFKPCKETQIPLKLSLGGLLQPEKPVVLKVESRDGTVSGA
Experimental: (§1) Compounds were evaluated for their propensity to act as substrates of individual human cytochrome P450 enzymes using a bacterial membrane preparation co-expressing human NADPH-cytochrome P450 reductase with either human CYP3A4 or CYP2D6 (Bactosomes™ Cypex, Ltd., Dundee, UK). In vitro metabolism studies using Bactosomes™ expressing individual human CYP isoforms monitor the extent to which a test compound is metabolized by a single CYP450 enzyme and allow identification of the CYP isoforms that may be responsible for the metabolism of a test compound. Timecourse analyses of test molecules (5 μM) with CYP2D6- or CYP3A4-expressing Bactosomes™ (100 pmol/mL) are performed in buffer (0.1 M phosphate, pH 7.4) in a final reaction volume of 25 μL. […] Reactions are terminated by the addition of methanol (50 μL) containing internal standard at 0, 5, 15, 30, and 45 minutes.

CYP2D6 = CYP2D6 (Homo sapiens (Human), UniProt P10635); assay: Metabolic stability in CYP2D6-expressing Bactosomes; assay type: in vitro ADME; settings: 5 μM
Sequence of CYP2D6 (P10635 whole entry): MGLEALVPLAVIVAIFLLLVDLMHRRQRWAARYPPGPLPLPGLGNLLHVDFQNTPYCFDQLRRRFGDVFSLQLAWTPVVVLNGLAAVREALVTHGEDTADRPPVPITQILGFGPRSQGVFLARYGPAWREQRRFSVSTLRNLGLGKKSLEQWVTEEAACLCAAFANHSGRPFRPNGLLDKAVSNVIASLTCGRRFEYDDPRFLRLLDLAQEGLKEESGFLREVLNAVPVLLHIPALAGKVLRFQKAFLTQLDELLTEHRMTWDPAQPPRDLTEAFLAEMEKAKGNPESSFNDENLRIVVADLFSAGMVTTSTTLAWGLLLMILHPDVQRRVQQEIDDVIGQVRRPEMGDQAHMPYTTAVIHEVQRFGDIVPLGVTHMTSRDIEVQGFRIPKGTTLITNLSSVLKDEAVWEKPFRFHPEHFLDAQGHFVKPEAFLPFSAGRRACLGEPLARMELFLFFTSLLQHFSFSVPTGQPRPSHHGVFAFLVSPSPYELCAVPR
Experimental: as §1

[3] = tested on: human liver microsomal proteins; assay: Microsomal protein binding by equilibrium dialysis; assay type: in vitro ADME; settings: human liver microsomes, 3 μM, fraction unbound
Experimental: PEGylated protease inhibitors were evaluated for their propensity to be bound by proteins in normal human plasma or in human liver microsome preparations using equilibrium dialysis analysis. For microsomal protein binding, test compound (final concentration=3 μM) was diluted into either buffer alone or buffer containing human liver microsomes. The protein-free and microsome-containing solutions were then added to either side of an equilibrium dialysis system and allowed to reach equilibrium at 37° C. The concentration of compound on both sides of the membrane at equilibrium was quantified by LC-MS/MS, and the fraction of compound that remains unbound (Fu) is calculated.

Caco-2 cells = assay: Bi-directional permeability in Caco-2 monolayers; settings: Caco-2 monolayers, apical to basolateral
Experimental: Absorption properties of various compounds were measured using bi-directional permeability assays in Caco-2 cells. […] The efflux ratio is calculated as the ratio of the Papp(B→A)/Papp(A→B).

human plasma proteins = assay: Plasma protein binding by equilibrium dialysis, human plasma; assay type: in vitro ADME; settings: human plasma, 5 μM, fraction unbound
Experimental: (§2) In assays to estimate binding of test compounds to plasma proteins, test compound solutions (5 μM) are prepared in buffer and species-specific plasma (final DMSO concentration 0.5%). The plasma-containing solution is added to one side of the membrane of an equilibrium dialysis system, and the plasma-free is added to the other side. Dialysis was allowed to reach equilibrium by incubation for two hours at 37° C. The concentration of compound on both sides of the membrane was measured using LC-MS/MS.

HIV-1RF [4] = assay: Anti-HIV cytoprotection in CEM-SS cells infected with HIV-1RF (XTT); assay type: cell-based; settings: six days, XTT; read-out: CEM-SS/HIV-1RF EC50 ± SD
Experimental: To evaluate whether conjugated protease inhibitors retain the ability to protect against HIV-1 infection, CEM-SS cells infected with the RF strain of HIV-1 were treated with test compounds for six days, and then cell viability was monitored using the tetrazolium dye XTT. […] A value for Therapeutic Index (TI) was calculated as TC50/EC50.

human hepatocytes = assay: Metabolic stability in cryopreserved human hepatocytes; settings: human hepatocytes
Experimental: Metabolism of PI conjugates was investigated by monitoring the levels of unmetabolized parent compound following incubation with cryopreserved human or monkey hepatocytes. The use of whole hepatocytes rather than microsomes requires that the drugs cross the cell membrane to interact with intracellularly-localized metabolic enzymes, and thus provides the most relevant in vitro system for understanding overall metabolic stability of these compounds.
Test compounds (0.1 μM or 3 μM, as indicated) are incubated with cryopreserved human hepatocytes at a cell density of 0.5×10^6 viable cells/mL. […] Duplicate samples (50 μL) are removed from the incubation mixture at various timepoints up to four hours (for 0.1 μM test compound concentration), or one or two hours (for 3 μM test compound concentration), and the reaction is quenched by the addition of methanol containing internal standard (100 μL). The samples are centrifuged (2500 rpm at 4° C. for 20 min), and the supernatants at each time point pooled for cassette analysis by LC-MS/MS.

CYP3A4 [5] = target: T1, CYP3A4; assay: CYP450 inhibition in human liver microsomes: CYP3A4;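 further: incubation at 37 °C started by adding 1 mM NADPH, with formation of the probe metabolite measured via LC-MS/MS or fluorescent detection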
HIV-1BaL = assay: HIV-1 p24 levels after infection of fresh human monocyte/macrophages; assay type: cell-based; settings: Human immunodeficiency virus 1, Monocyte, 168 h, read-out: Monocyte/HIV-1BaL EC50, seven days, p24
Experimental: Mononuclear cells were isolated from fresh human peripheral blood cells by Ficoll-Hypaque density gradient by centrifugation at 600 g for 30 minutes. Banded peripheral blood mononuclear cells (PBMCs) were aspirated from the resulting interface and washed with phosphate buffered saline by low speed centrifugation. […] Cells were allowed to attach for 2 to 12 h at 37° C., then washed with Dulbecco's phosphate buffered saline (DPBS). Monocyte-macrophage monolayer formation was induced by incubation in growth medium (RPMI 1640 medium supplemented with 10% fetal bovine serum, 2 mmol/L L-glutamine, 100 Units/mL penicllin and 10 μg/mL streptomycin) for 7 days. Residual PBMCs were removed by washing the cell monolayers with DPBS. After washing, test compound diluted in growth medium was added to cells. Immediately following test compound addition, HIV-1 virus was added to the cells at multiplicity of infection (MOI)=0.05-0.10. After 7 days in culture, HIV-1 replication was quantified by ELISA measurement of cell-free HIV-1 viral capsid protein (p24) in the tissue culture supernatant of treated monocyte-macrophage monolayers. ELISA to quantify p24 was performed according to manufacturer's instructions (Perkin Elmer, Waltham, Mass.). The quantity of free HIV-1 p24 antigen in the sample was determined by comparing its absorbance at 490 nm to that of control standards.
(§3) Fresh human monocytes were infected with the BaL strain of HIV-1 in the presence of test compounds. After seven days in culture, HIV-1 replication was evaluated by measurement of HIV-1 viral capsid protein (p24) in the tissue culture supernatant (Table 7). […] A TI was calculated as described above using TC50 values derived from cell toxicity data in response to test compounds in the absence of viral infection.

CEM-SS cells = assay: Post-exposure assay: toxicity in CEM-SS cells; settings: human
Experimental: (§4) The effects of pre- and post-infection PI treatment on CEM-SS toxicity were assessed. […] Cell toxicity was monitored six days after infection using XTT reagent. In the post-exposure assay, test compounds were added to cells 0, 24, 48, or 72 h after HIV-1 infection, and cell viability was measured six days post-infection.

HIV-1RF [6] = assay: p24 levels after single high MOI HIV-1RF infection of CEM-SS cells, time of addition; assay type: cell-based
Experimental: The cytoprotective effect against HIV of the PEG-protease inhibitor conjugates was evaluated during a single round of high multiplicity of infection (“MOI”) HIV-1 infection in CEM-SS cells. CEM-SS cells were incubated for one hour with a single high MOI dose of HIV-1RF. Cells were washed to remove free virus, then test compounds were added to cells at 0, 2, 4, 6, 8, 16, or 24 hours after HIV-1 infection. To monitor viral replication, cell supernatants were analyzed at 30 hours post-infection for levels of the HIV capsid protein p24 (FIG. 1). […] Nevirapine inhibited viral replication at 1 μM when added to cells up to four hours post-infection, and at 10 μM when added up to eight hours post-infection.

human monocytes = assay: Toxicity in human monocytes in the absence of viral infection; settings: human
Experimental: as §3

HIV-1 virions = assay: Infectivity of HIV-1 virions from treated cells on naive CEM-SS cells; assay type: cell-based
Experimental: In concert with p24 analysis, cell supernatants collected from cells exposed to test compounds at 8, 16, or 24 hours post-infection were used to infect naïve CEM-SS cells. Cell viability was measured six days post-infection as a measure of virus infectivity (Table 5).

HIV-1RF [7] = assay: Pre-exposure assay: CEM-SS cells treated before HIV-1RF infection, cell viability; assay type: cell-based; settings: Human immunodeficiency virus 1, CEM-SS
Experimental: as §4

HIV-1 HT/92/599 = assay: HIV-1 reverse transcriptase activity after infection of fresh human PBMCs; assay type: cell-based; settings: read-out: PBMC/HIV-1HT/92/599 EC50 ± SD; seven days, reverse transcriptase activity
Experimental: Fresh human peripheral blood mononuclear cells (PBMCs) obtained from a commercial source were purified following centrifugation using a Ficoll-Hypaque density gradient. Viable cells were induced to proliferate in the presence of PHA-P and recombinant human IL-2 for 72 hours. […] Cell supernatant containing HIV-1 viral was incubated for 90 minutes at 37° C. with a reaction mixture containing EGTA, Triton X-100, Tris (pH 7.4), DTT, MgCl2, poly rA, oligo dT, and tritiated thymidine triphosphate (TTP). Incorporation of TTP into DNA was monitored by spotting the reaction mixture onto a DEAE filter mat, followed by washes with 5% phosphate buffer, distilled water, and 70% ethanol, and subsequent drying of the mat. Radioactivity was measured using a Wallac 1450 Microbeta Trilux liquid scintillation counter using Opti-Fluor O. Test compound-associated toxicity was measured in PBMCs cultured for seven days in the absence of virus using XTT reagent. […] TI was calculated as TC50/EC50.

[8] = Plasma protein binding by equilibrium dialysis, human plasma; assay type: in vitro ADME; settings: human, plasma
Experimental: as §2

HIV-1RF [9] = assay: Post-exposure assay: compounds added after HIV-1 infection of CEM-SS cells, cell viability; assay type: cell-based; settings: Human immunodeficiency virus 1, CEM-SS
Experimental: as §4

COCCOCCOCCNc1ccc(S(=O)(=O)N(CC(C)C)CC(O)[C@H](Cc2ccccc2)NC(=O)O[C@H]2CO[C@H]3OCC[C@H]32)cc1 (some centres unmarked) [mPEG3-N-Darunavir]
CLint ± SEM [1]: 385 ± 0.718 μL/min/mg protein
t1/2 [1]: 3.60 min
3A4 t1/2 ± SEM (CYP3A4 [2]): 66.6 ± 4.88 min
2D6 t1/2 ± SEM (CYP2D6): 68.4 ± 18.9 min
Microsomal Protein Binding Fu ± SD [3]: 0.96 ± 0.0407
A→B, ×10^−6 (Caco-2 cells): 2.52 cm/s
Plasma Protein Binding Fu ± SD (human plasma proteins): 0.236 ± 0.0292
EC50 (HIV-1RF [4]): < 0.7 nM
CLint ± SEM (human hepatocytes; 0.1 uM, up to four hours): 48.0 ± 4.75 μL/min/10^6 cells
t1/2 (human hepatocytes; 0.1 uM, up to four hours): 28.9 min
CLint ± SEM (human hepatocytes; 3 uM, incubated up to one hour): 18.2 ± 1.47 μL/min/10^6 cells
IC50 (CYP3A4 [5]; read-out: CYP3A4 IC50 Midazolam, probe substrate midazolam): 1200 nM
IC50 (CYP3A4 [5]; read-out: CYP3A4 IC50 Testosterone, probe substrate testosterone): 3100 nM

CC(C)(C)NC(=O)[C@@H]1C[C@@H]2CCCC[C@@H]2CN1C[C@@H](O)[C@H](Cc1ccccc1)NC(=O)[C@H](CC(N)=O)NC(=O)c1ccc2ccccc2n1 [Saquinavir]
EC50 (HIV-1BaL): 40 nM
TC50 (CEM-SS cells; 3 days): >1000 nM
TC50 (CEM-SS cells; 4 days): >1000 nM
TC50 (CEM-SS cells; 5 days): >1000 nM
TC50 (CEM-SS cells; 6 days): >1000 nM
time of addition up to which antiviral activity (reduced p24) was seen (HIV-1RF [6]; 0.1 μM): up to 16 hours post-infection
time of addition up to which antiviral activity (reduced p24) was seen (HIV-1RF [6]; 1 μM): up to 24 hours post-infection
TC50 (human monocytes): >1000 nM
Percent Infectivity of HIV-1 Virions in comparison to virus-alone control (HIV-1 virions; 0.01 μM, added 8 h post-infection): 100.0%
Percent Infectivity of HIV-1 Virions in comparison to virus-alone control (HIV-1 virions; 0.01 μM, added 16 h post-infection): 117.0%
Percent Infectivity of HIV-1 Virions in comparison to virus-alone control (HIV-1 virions; 0.01 μM, added 24 h post-infection): 404.8%
Percent Infectivity of HIV-1 Virions in comparison to virus-alone control (HIV-1 virions; 0.1 μM, added 8 h post-infection): 5.6%
Percent Infectivity of HIV-1 Virions in comparison to virus-alone control (HIV-1 virions; 0.1 μM, added 16 h post-infection): 10.0%
Percent Infectivity of HIV-1 Virions in comparison to virus-alone control (HIV-1 virions; 0.1 μM, added 24 h post-infection): 128.0%
reduction of virion infectivity vs virus-only control (HIV-1 virions; 1 μM at 24 hours post-infection): ~90%
Percent Infectivity of HIV-1 Virions in comparison to virus-alone control (HIV-1 virions; 1 μM, added 8 h post-infection): 0.1%
Percent Infectivity of HIV-1 Virions in comparison to virus-alone control (HIV-1 virions; 1 μM, added 16 h post-infection): 7.8%
Percent Infectivity of HIV-1 Virions in comparison to virus-alone control (HIV-1 virions; 1 μM, added 24 h post-infection): 12.8%
reduction of virion infectivity vs virus-only control (HIV-1 virions; 0.1 or 1 μM at 8 and 16 hours post-infection): at least 90%
EC50 (HIV-1RF [7]; 2 h): 20 nM
EC50 (HIV-1RF [7]; 8 h): 50 nM
EC50 (HIV-1RF [7]; 24 h): 40 nM
EC50 (HIV-1 HT/92/599): 9 nM
fraction unbound at 2 h, 5 μM [8]: 0.0353 ± 0.00151
EC50 (HIV-1RF [9]; 0 h): < 3 nM
EC50 (HIV-1RF [9]; 24 h): 4 nM
EC50 (HIV-1RF [9]; 48 h): 5 nM
EC50 (HIV-1RF [9]; 72 h): 10 nM
